Data from PMC6369240, “Biological evaluation and structure activity relationship of 9-methyl-1-phenyl-9H-pyrido[3,4-b]indole derivatives as anti-leishmanial agents” (Bioorganic Chemistry, 2019).

Legend:
[1] = HeLa cell cytotoxicity, Alamar blue assay; assay type: cell-based; settings: human; HeLa cells, ~65 h incubation plus 5 h Alamar Blue
Procedure: HeLa cell cytotoxicity studies were carried out as described previously. Briefly, the cells were cultured in DMEM supplemented with 10% fetal calf serum and 2 mM L-glutamine. Cells were plated at initial cell concentration of 2 × 10^4 cells/well and incubated with the compounds for ∼65 h prior to addition of Alamar Blue solution for further 5 h.

[2] = tested on: L. infantum JPCM5 MCAN/ES/98/LLM-87 promastigotes; assay: L. infantum promastigote assay (Alamar blue); assay type: cell-based, Leishmania infantum; settings: for S.I (CC50/IC50), L. infantum promastigote: HeLa CC50 / L. infantum promastigote EC50; for EC50: Leishmania infantum, 72 h, Alamar blue
Procedure: (§1) Anti-leishmanial activity of these analogues was determined by evaluating their inhibition activity against both promastigote, amastigote forms of Leishmania infantum and Leishmania donovani strains. […] Anti-leishmanial drugs miltefosine and pentamidine were used as standards for comparison purpose.
Anti-promastigote activity of these reported β-carboline derivatives was determined by Alamar blue assay method.
(§2) L. donovanipromastigotes were cultured at 37 °C in M199 medium supplemented with 10% heat-inactivated fetal calf serum. L. infantum JPCM5 MCAN/ES/98/LLM-87 promastigotes were cultured at 26 °C in modified Eagle’s medium (HOMEM). Parasites were incubated with serial dilutions of compounds for 72 h, followed by Alamar blue-based assay as previously described.

[3] = tested on: L. infantum JPCM5 MCAN/ES/98/LLM-87 axenic amastigotes; assay: L. infantum axenic amastigote assay (Alamar blue); assay type: cell-based, Leishmania infantum; settings: for S.I (CC50/IC50), L. infantum axenic amastigote: HeLa CC50 / L. infantum axenic amastigote EC50; for EC50: Leishmania infantum, 72 h, Alamar blue
Procedure: Alamar blue assay method was used to determine inhibition potential of these β-carboline derivatives against (human life stage forms) axenic amastigotes.
(§3) L. donovaniLdBOB axenic amastigotes or L. infantum JPCM5 MCAN/ES/98/LLM-87 were cultured at 37 °C in modified Eagle’s medium (HOMEM; L. infantum) and axenic amastigotes were incubated for 72 h with compounds, followed by Alamar blue-based assay as previously described.

[4] = tested on: L. donovani promastigotes; assay: L. donovani promastigote assay (Alamar blue); assay type: cell-based, Leishmania donovani; settings: for S.I (CC50/IC50), L. donovani promastigote: HeLa CC50 / L. donovani promastigote EC50; for EC50: Leishmania donovani, 72 h, Alamar blue
Procedure: as §1
L. donovani promastigote inhibition potency of these reported β-carboline derivatives was determined by Alamar blue assay method.
as §2

[5] = tested on: L. donovani LdBOB axenic amastigotes; assay: L. donovani axenic amastigote assay (Alamar blue); assay type: cell-based, Leishmania donovani; settings: for S.I (CC50/IC50), L. donovani axenic amastigote: HeLa CC50 / L. donovani axenic amastigote EC50; for EC50: 72 h, Alamar blue
Procedure: as §3

[6] = tested on: L. donovani LdBOB intracellular amastigotes in PMA differentiated THP-1 cells; assay: Intra macrophage L. donovani (amastigote) assay in THP-1 cells; assay type: cell-based, Leishmania donovani; settings: for S.I (CC50/IC50), L. donovani intracellular amastigote: HeLa CC50 / L. donovani intracellular amastigote EC50; for EC50: THP-1 macrophages, 72 h, microscopy readout
Procedure: Although, axenic amastigotes assay most commonly used to screen new leishmanial agents are different from intracellular amastigotes in terms of protein expression and drug susceptibility. […] THP-1 (human monocytic leukemia) cells were a kind gift from Dr Susan Wylie (Dundee) and maintained in minimal essential medium plus 10% (vol/vol) FBS. […] Briefly, THP-1 cells (20,000 per well, 200 μL) were plated into 96 well plates in presence of 10 nM PMA and incubated at 37 °C in 5% CO2 atmosphere for 75 h. […] Any remaining extracellular amastigotes were removed and the adhered cells were washed with the same supplemented PBS solution as above. Pre-aliquoted compounds in a serial dilution were added from another plate, such that the total well volume was 200 μL and incubated for further 72 h. Cells were fixed with 100% methanol, stained with Giemsa and examined microscopically.

[7] = Leishmania donovani, THP-1, 72 h

Row | Compound | CC50 [1] [µM] | S.I (CC50/IC50), L. infantum promastigote [2] | EC50 [2] [µM] | S.I (CC50/IC50), L. infantum axenic amastigote [3] | EC50 [3] [µM] | S.I (CC50/IC50), L. donovani promastigote [4] | EC50 [4] [µM] | S.I (CC50/IC50), L. donovani axenic amastigote [5] | EC50 ([5]; Leishmania donovani) [µM] | S.I (CC50/IC50), L. donovani intracellular amastigote [6] | EC50 [6, 7] [µM] | melting point [°C] | EC50 [6] [µM] | EC50 [5] [µM]
1 | Cn1c2ccccc2c2cc(C(=O)N3CCN(c4ccccc4)CC3)nc(-c3ccccc3)c21 [7a, (9-methyl-1-phenyl-9H-pyrido[3,4-b]indol-3-yl)(4-phenylpiperazin-1-yl)methanone] | > 500 | >52.9 | 9.45 ± 0.82 | >111.1 | 4.5 ± 0.3 | >42.0 | 11.9 ± 1.2 | 50.0 | 10 ± 0.3 | 37.0 | 13.5 ± 2 | 232 to 234 | – | –
2 | Cc1ccc(N2CCN(C(=O)c3cc4c5ccccc5n(C)c4c(-c4ccccc4)n3)CC2)cc1 [7b, (9-methyl-1-phenyl-9H-pyrido[3,4-b]indol-3-yl)(4-p-tolylpiperazin-1-yl)methanone] | > 500 | >20.5 | 24.3 ± 1.3 | – | – | >35.2 | 14.2 ± 1.2 | 86.2 | 5.8 ± 0.3 | 63.3 | 7.2 | 188 to 190 | 7.9 ± 0.4 | –
3 | Cc1ccccc1N1CCN(C(=O)c2cc3c4ccccc4n(C)c3c(-c3ccccc3)n2)CC1 [7c, (9-methyl-1-phenyl-9H-pyrido[3,4-b]indol-3-yl)(4-o-tolylpiperazin-1-yl)methanone] | > 500 | >134.0 | 3.73 ± 0.28 | >192.3 | 2.6 ± 0.2 | >52.9 | 9.45 ± 0.72 | 94.3 | 5.3 ± 0.4 | 53.2 | 7.8 | 148 to 150 | 9.4 ± 1.3 | –
4 | COc1cccc(N2CCN(C(=O)c3cc4c5ccccc5n(C)c4c(-c4ccccc4)n3)CC2)c1 [7e, (4-(3-methoxyphenyl)piperazin-1-yl)(9-methyl-1-phenyl-9H-pyrido[3,4-b]indol-3-yl)methanone] | > 500 | >6.9 | 72.4 ± 6.7 | – | – | >17.5 | 28.5 ± 1.8 | – | – | – | – | 196 to 198 | – | –
5 | Cn1c2ccccc2c2cc(C(=O)N3CCN(c4cccc(Cl)c4)CC3)nc(-c3ccccc3)c21 [7h, (4-(3-chlorophenyl)piperazin-1-yl)(9-methyl-1-phenyl-9H-pyrido[3,4-b]indol-3-yl)methanone] | > 500 | >9.8 | – | – | – | >125 | 4 ± 0.25 | 227.3 | 3.5 | 64.1 | 7.9 | 130 to 132 | 7.8 ± 1.3 | 2.2 ± 0.1
6 | Cn1c2ccccc2c2cc(C(=O)N3CCN(c4ccccc4Cl)CC3)nc(-c3ccccc3)c21 [7i, (4-(2-chlorophenyl)piperazin-1-yl)(9-methyl-1-phenyl-9H-pyrido[3,4-b]indol-3-yl)methanone] | > 500 | >23.0 | 21.7 ± 0.6 | – | – | >32.9 | 15.2 ± 0.85 | 25.8 | 19.4 ± 1.2 | 22.7 | 22 ± 2.1 | 152 to 154 | – | –
7 | Cn1c2ccccc2c2cc(C(=O)N3CCN(c4ccccc4F)CC3)nc(-c3ccccc3)c21 [7l, (4-(2-fluorophenyl)piperazin-1-yl)(9-methyl-1-phenyl-9H-pyrido[3,4-b]indol-3-yl)methanone] | > 500 | >7.7 | 64.9 ± 5.7 | – | – | >5.8 | 85.9 ± 7.3 | – | – | – | – | 168 to 170 | – | –
8 | Cn1c2ccccc2c2cc(C(=O)N3CCN(c4cccc(Cl)c4Cl)CC3)nc(-c3ccccc3)c21 [7m, (4-(2,3-dichlorophenyl)piperazin-1-yl)(9-methyl-1-phenyl-9H-pyrido[3,4-b]indol-3-yl)methanone] | > 500 | >5.3 | 93 ± 7.5 | – | – | >4.3 | 118 ± 6.4 | – | – | – | – | 166 to 168 | – | –
9 | Cn1c2ccccc2c2cc(C(=O)N3CCN(Cc4ccccc4)CC3)nc(-c3ccccc3)c21 [7n, (4-benzylpiperazin-1-yl)(9-methyl-1-phenyl-9H-pyrido[3,4-b]indol-3-yl)methanone] | > 500 | >24.5 | 20.4 ± 1.4 | – | – | >109.4 | 4.57 ± 0.24 | 142.9 | 2.2 | 89.3 | 5.6 ± 0.9 | 158 to 160 | – | 3.5 ± 0.2
10 | Cn1c2ccccc2c2cc(C(=O)N3CCN(c4ccncc4)CC3)nc(-c3ccccc3)c21 [7o, (9-methyl-1-phenyl-9H-pyrido[3,4-b]indol-3-yl)(4-(pyridin-4-yl)piperazin-1-yl)methanone] | 29.7 ± 1.5 | 0.48 | – | – | – | 1.52 | 19.5 ± 2.8 | 2.1 | 13.9 ± 0.4 | 4.1 | 7.9 | 198 to 200 | 7.2 ± 0.5 | –
11 | Cn1c2ccccc2c2cc(C(=O)N3CCN(c4ccccn4)CC3)nc(-c3ccccc3)c21 [7p, (9-methyl-1-phenyl-9H-pyrido[3,4-b]indol-3-yl)(4-(pyridin-2-yl)piperazin-1-yl)methanone] | 273 ± 21.6 | 5.97 | 45.7 ± 3.3 | – | – | – | 8.5 ± 0.75 | 22.2 | 12.3 ± 0.6 | 34.6 | 9.4 | 174 to 176 | 7.9 ± 0.3 | –
12 | N=C(N)c1ccc(OCCCCCOc2ccc(C(=N)N)cc2)cc1 [Pentamidine, reference compound] | – | – | 8.31 ± 0.18 | – | 2.7 ± 0.4 | – | 6.4 ± 0.11 | – | 1.6 ± 0.1 | – | 23.7 ± 1.8 | – | – | –
